Reference: US7547803B2, “Process for producing a high purity aromatic polycarboxylic acid” (Mitsubishi Gas Chemical Company, Inc., priority 2003, dated 2009)

Assay: solubility in water at 280° C.
Assay type: physicochemical

solubility of 2,6-naphthalenedicarboxylic acid in water: about 6 g in 100 g of water
SMILES: O=C(O)c1ccc2cc(C(=O)O)ccc2c1 [2,6-naphthalenedicarboxylic acid]
